# Values joined by “and” are separate entries in the source; they are usually repeats but may differ in a detail not shown here. Equal values may be shown once.
# Legend:
# [1] = system: PHSVX Phaseolus vulgaris (Garden bean); experiment: Ipfencarbazone biostimulant effect, early post emergence foliar application, greenhouse pots, plant height: dry bean; format: in vivo; conditions: PHSVX PEROLA
# Source text: (§1) The original objective of this Example was to evaluate the herbicidal effect of ipfencarbazone when applied as a post emergent treatment to a range of selected crops and weeds. Unexpectedly, crop plant growth stimulation was observed. The actual species of weeds and crops are listed in the summary data tabulated below and in FIGS. 1-13. By convention each plant species has a Bayer code (5-letter name) with the scientific name for the plant referenced in FIGS. 1-13. In each Figure, each tray contains the same configuration of weeds and/or crops. In each Figure there is one replication of each treatment (six treatments in total). The top three photographs in each Figure show the Bayer Codes and bottom three photographs are aligned with the top three facilitating viewing of the same plant species. Throughout the Examples various abbreviations as conventional shorthand notation and will be appreciated by those skilled in the art. Some exemplary abbreviations include, “CV”=Co-efficient of Variation,” “LSD”=Least Significant Difference” (G/L (gram per L) AND GA/L (gram of active ingredient per L); “SC”=suspension concentrate formulation. The diluent in all treatments was water. By convention factors that are identical in all treatments (e.g. diluent and surfactant) are not listed in each treatment.
# (§2) Methods: The indicated size pots (see Tables below) are filled with a specific soil, the soil properties being indicated below. The referenced crops and weeds are planted by hand in each pot. […] The experiments include six treatments each replicated three times on each crop/weed species. At a specific time after emergence each crop and weed species was treated with ipfencarbazone plus a non-ionic surfactant (NIS). In the present Example, the surfactant employed was ENERGIC™ (non-ionic surfactant). The application timing is indicated in each of the Tables (1 or 2 leaf stage) below. Ipfencarbazone plus surfactant was diluted in water and applied at a rate equivalent to about 250 L/ha. Ipfencarbazone was applied using a track sprayer. After treatment, the pots were randomized in a greenhouse. At each assessment (indicated by “days after treatment” or DAT) the height of each plant was measured. The letters next to each mean indicate the level of statistical significance.
# (§3) Replications: 3, Untreated treatments: 1, Design: Randomized Complete Block (RCB), Treatment units: Treated ‘Plot’ experimental unit size, Dry Form. Unit: %, Treated ‘Plot’ experimental unit size Width: 1 meter, Treated ‘Plot’ experimental unit size Length: 1.4 meters, Application volume: 250 L/ha, Mix size: 0.15 liters, […]
# [2] = system: GLXMA Glycine max (Soybean); experiment: Ipfencarbazone biostimulant effect, early post emergence foliar application, greenhouse pots, plant height: soybean; format: in vivo; conditions: GLXMA BMXPOTENCIA
# Source text: as §1, §2, §3
# [3] = 62.5 g ai/ha, 15 DA-A, plots 102, 205, 302
# [4] = 125 g ai/ha, 15 DA-A, plots 103, 206, 305
# [5] = 250 g ai/ha, 15 DA-A, plots 104, 201, 306
# [6] = 500 g ai/ha, 15 DA-A, plots 105, 202, 301
smiles,measurement,setting,value
"CC(C)N(C(=O)n1cnn(-c2ccc(Cl)cc2Cl)c1=O)c1ccc(F)cc1F [ARY-0572-001, ipfencarbazone]","HEIGHT, percent of untreated check (APoC)","[1]; 62.5 g ai/ha, 15 DA-A",(105.6%)
same,"HEIGHT, treatment mean","[1]; 62.5 g ai/ha, 15 DA-A",10.4 a cm and 10.4 cm
same,"HEIGHT, single plots (replicates)",[1]; [3],11.7 cm (2×) and 8.0 cm
same,"HEIGHT, percent of untreated check (APoC)","[1]; 62.5 g ai/ha, 28 DA-A, AS square root transformation",(152.2%)
same,"HEIGHT, treatment mean","[1]; 62.5 g ai/ha, 28 DA-A, AS square root transformation (t)",19.8 a cm and 19.8t cm
same,"HEIGHT, single plots (replicates)","[1]; 62.5 g ai/ha, 28 DA-A, plots 102, 205, 302",24.0 cm and 17.3 cm and 19.7 cm
same,"HEIGHT, percent of untreated check (APoC)","[1]; 125 g ai/ha, 15 DA-A",(75.8%)
same,"HEIGHT, treatment mean","[1]; 125 g ai/ha, 15 DA-A",7.5 ab cm and 7.5 cm
same,"HEIGHT, single plots (replicates)",[1]; [4],0.0 cm and 10.7 cm and 11.8 cm
same,"HEIGHT, percent of untreated check (APoC)","[1]; 125 g ai/ha, 28 DA-A, AS square root transformation",(91.8%)
same,"HEIGHT, treatment mean","[1]; 125 g ai/ha, 28 DA-A, AS square root transformation (t)",12.0 a cm and 12.0t cm
same,"HEIGHT, single plots (replicates)","[1]; 125 g ai/ha, 28 DA-A, plots 103, 206, 305",4.3 cm and 16.0 cm and 20.3 cm
same,"HEIGHT, percent of untreated check (APoC)","[1]; 250 g ai/ha, 15 DA-A",(5.6%)
same,"HEIGHT, treatment mean","[1]; 250 g ai/ha, 15 DA-A",0.6 c cm and 0.6 cm
same,"HEIGHT, single plots (replicates)",[1]; [5],0.0 cm (2×) and 1.7 cm
same,"HEIGHT, percent of untreated check (APoC)","[1]; 250 g ai/ha, 28 DA-A, AS square root transformation",(2.5%)
same,"HEIGHT, treatment mean","[1]; 250 g ai/ha, 28 DA-A, AS square root transformation (t)",0.3 a cm and 0.3t cm
same,"HEIGHT, single plots (replicates)","[1]; 250 g ai/ha, 28 DA-A, plots 104, 201, 306",0.0 cm (2×) and 2.0 cm
same,"HEIGHT, percent of untreated check (APoC)","[1]; 500 g ai/ha, 15 DA-A",(6.7%)
same,"HEIGHT, treatment mean","[1]; 500 g ai/ha, 15 DA-A",0.7 c cm and 0.7 cm
same,"HEIGHT, single plots (replicates)",[1]; [6],2.0 cm and 0.0 cm (2×)
same,"HEIGHT, percent of untreated check (APoC)","[1]; 500 g ai/ha, 28 DA-A, AS square root transformation",(155.1%)
same,"HEIGHT, treatment mean","[1]; 500 g ai/ha, 28 DA-A, AS square root transformation (t)",20.2 a cm and 20.2t cm
same,"HEIGHT, single plots (replicates)","[1]; 500 g ai/ha, 28 DA-A, plots 105, 202, 301",73.0 cm and 0.0 cm and 25.0 cm
same,"HEIGHT, percent of untreated check (APoC)","[1]; 1000 g ai/ha, 15 DA-A",(59.0%)
same,"HEIGHT, treatment mean","[1]; 1000 g ai/ha, 15 DA-A",5.8 b cm and 5.8 cm
same,"HEIGHT, single plots (replicates)","[1]; 1000 g ai/ha, 15 DA-A, plots 106, 203, 304",5.0 cm and 6.7 cm and 5.8 cm
same,"HEIGHT, percent of untreated check (APoC)","[1]; 1000 g ai/ha, 28 DA-A, AS square root transformation",(51.7%)
same,"HEIGHT, treatment mean","[1]; 1000 g ai/ha, 28 DA-A, AS square root transformation (t)",6.7 a cm and 6.7t cm
same,"HEIGHT, single plots (replicates)","[1]; 1000 g ai/ha, 28 DA-A, plots 106, 203, 304",6.3 cm and 7.3 cm and 6.7 cm
same,"HEIGHT, percent of untreated check (APoC)","[2]; 62.5 g ai/ha, 15 DA-A",(113.4%)
same,"HEIGHT, treatment mean","[2]; 62.5 g ai/ha, 15 DA-A",15.0 a cm and 15.0 cm
same,"HEIGHT, single plots (replicates)",[2]; [3],15.3 cm and 14.8 cm (2×)
same,"HEIGHT, percent of untreated check (APoC)","[2]; 62.5 g ai/ha, 28 DA-A",(146.3%)
same,"HEIGHT, treatment mean","[2]; 62.5 g ai/ha, 28 DA-A",30.6a cm
same,"HEIGHT, percent of untreated check (APoC)","[2]; 125 g ai/ha, 15 DA-A",(84.9%)
same,"HEIGHT, treatment mean","[2]; 125 g ai/ha, 15 DA-A",11.2 abc cm and 11.2 cm
same,"HEIGHT, single plots (replicates)",[2]; [4],6.2 cm and 13.5 cm and 14.0 cm
same,"HEIGHT, percent of untreated check (APoC)","[2]; 125 g ai/ha, 28 DA-A",(113.8%)
same,"HEIGHT, treatment mean","[2]; 125 g ai/ha, 28 DA-A",23.8 ab cm
same,"HEIGHT, percent of untreated check (APoC)","[2]; 250 g ai/ha, 15 DA-A",(71.8%)
same,"HEIGHT, treatment mean","[2]; 250 g ai/ha, 15 DA-A",9.5 bcd cm and 9.5 cm
same,"HEIGHT, single plots (replicates)",[2]; [5],8.3 cm and 10.8 cm and 9.3 cm
same,"HEIGHT, percent of untreated check (APoC)","[2]; 250 g ai/ha, 28 DA-A",(87.8%)
same,"HEIGHT, treatment mean","[2]; 250 g ai/ha, 28 DA-A",18.3 bc cm
same,"HEIGHT, percent of untreated check (APoC)","[2]; 500 g ai/ha, 15 DA-A",(45.4%)
same,"HEIGHT, treatment mean","[2]; 500 g ai/ha, 15 DA-A",6.0 d cm and 6.0 cm
same,"HEIGHT, single plots (replicates)",[2]; [6],8.0 cm and 1.3 cm and 8.7 cm
same,"HEIGHT, percent of untreated check (APoC)","[2]; 500 g ai/ha, 28 DA-A",(63.3%)
same,"HEIGHT, treatment mean","[2]; 500 g ai/ha, 28 DA-A",13.2 c cm

# From US20170318812A1, “Plant and Crop Growth Regulating/Biostimulant Formulations and Methods of Use” (Arysta Lifescience North America, LLC, priority 2014, published 2017)
